Assay results from patent US8278072B1, “Method for synthesis of sialylated products using reversible sialylation” (Health Research, Inc., priority 2007, dated 2012).
Counter-ions that a name gives are not always drawn. Like-named read-outs stand apart in the source and are kept apart here.

Experiments:
Type in all cases: biochemical
ST6Gal-I = molecular target: T1, ST6Gal-I (Rattus norvegicus, UniProt P13721); test: CMP-NeuAc / UMP-NeuAc formed by reverse sialylation as sialyl donor, ST6Gal-I activity; conditions: acceptor 2.5 mM Galβ1,4GlcNAcβ-O-Bn; donor [3] 0.0625 mM, 8 mM 5′-CMP or 5′-UMP, ST3Gal-II plus ST6GalI, 4 h
T1 construct: purchased Calbiochem
T1 sequence (P13721 1-403): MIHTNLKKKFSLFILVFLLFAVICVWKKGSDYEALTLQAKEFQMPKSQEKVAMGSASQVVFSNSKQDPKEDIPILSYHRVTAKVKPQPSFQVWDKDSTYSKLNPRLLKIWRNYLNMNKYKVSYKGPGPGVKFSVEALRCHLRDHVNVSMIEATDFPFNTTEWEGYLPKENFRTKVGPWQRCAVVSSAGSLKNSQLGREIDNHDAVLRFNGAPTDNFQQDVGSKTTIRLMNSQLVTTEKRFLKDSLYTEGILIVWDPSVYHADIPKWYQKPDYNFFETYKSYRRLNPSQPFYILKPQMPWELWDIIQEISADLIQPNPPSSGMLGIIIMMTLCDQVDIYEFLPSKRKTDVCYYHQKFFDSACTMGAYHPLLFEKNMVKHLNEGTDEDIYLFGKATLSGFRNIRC

ST3Gal-III = molecular target: T2, ST3Gal-III (Rattus norvegicus, UniProt Q02734); test: CMP-NeuAc / UMP-NeuAc formed by reverse sialylation as sialyl donor, ST3Gal-III activity; conditions: acceptor 2.5 mM 4-O-MeGalβ1,4GlcNAcβ-O-Bn; donor [3] 0.0625 mM, 8 mM 5′-CMP or 5′-UMP, ST3Gal-II plus ST3Gal-III, 4 h
T2 construct: purchased Calbiochem
T2 sequence (Q02734 1-374): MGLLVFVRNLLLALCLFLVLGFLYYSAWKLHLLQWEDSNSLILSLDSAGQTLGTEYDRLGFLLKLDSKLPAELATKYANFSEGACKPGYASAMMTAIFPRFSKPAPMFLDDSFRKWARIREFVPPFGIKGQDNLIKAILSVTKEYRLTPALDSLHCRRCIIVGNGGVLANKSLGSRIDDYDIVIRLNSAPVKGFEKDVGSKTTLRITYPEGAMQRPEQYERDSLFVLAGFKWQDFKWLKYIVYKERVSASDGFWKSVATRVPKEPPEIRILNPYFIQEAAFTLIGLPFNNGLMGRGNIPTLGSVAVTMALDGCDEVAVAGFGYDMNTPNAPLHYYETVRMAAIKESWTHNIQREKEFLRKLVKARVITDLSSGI

ST3Gal-II [1] = molecular target: T3, ST3Gal-II (Rattus norvegicus, UniProt Q11205); test: CMP-NeuAc / UMP-NeuAc formed by reverse sialylation as sialyl donor, ST3Gal-II activity; conditions: acceptor 2.5 mM D-Fucβ1,3GalNAcα-O-Bn; donor [3] 0.0625 mM, 8 mM 5′-CMP or 5′-UMP, 4 h, blank subtracted
T3 construct: purchased Calbiochem
T3 sequence (Q11205 1-350): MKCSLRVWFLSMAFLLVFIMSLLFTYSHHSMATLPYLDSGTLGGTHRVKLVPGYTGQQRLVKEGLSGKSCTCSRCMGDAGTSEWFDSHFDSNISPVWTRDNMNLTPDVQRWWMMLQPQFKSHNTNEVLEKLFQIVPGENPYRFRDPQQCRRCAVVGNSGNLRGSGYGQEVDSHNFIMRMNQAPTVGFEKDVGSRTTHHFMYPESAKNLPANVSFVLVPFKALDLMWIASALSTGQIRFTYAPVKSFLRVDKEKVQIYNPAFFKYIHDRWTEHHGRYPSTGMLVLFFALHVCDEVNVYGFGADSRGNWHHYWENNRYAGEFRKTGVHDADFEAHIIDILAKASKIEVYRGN

[2] = molecular target: T4, ST3Gal III (Cloned rat liver) (Rattus norvegicus, UniProt Q02734); test: Forward (direct) sialyltransferase activity, ST3Gal-III
T4 construct: purchased Calbiochem
T4 sequence (Q02734 1-374): T2 sequence (Q02734 1-374)
Procedure: (§1) FIG. 5. Effect of 5′-nucleotides on direct sialyltransferase activity (panel a) and reverse sialylation (panel b). a. Varying concentrations of 5′-CDP or 5′-CMP were added to 100 mM acceptor (specified below), 0.15 mM CMP-[9-^3H]NeuAc and either ST3Gal-II (0.2 mU), ST3Gal-III (0.5 mU) or ST6Gal-I (0.2 mU) for 4 h at 37° C. Products were separated using Sep-Pak C18 method. ST3Gal-III activity was measured using acceptor 4-O-MeGalβ1,4GlcNAcβ-O-Bn in the presence of 5′-CDP (●) and 5′-CMP (◯). ST6Gal-I activity was measured using Gal β1,4GlcNAcβ-O-Bn in the presence of 5′-CDP (▴) and 5′-CMP (Δ). ST3Gal-II using D-Fucβ1,3GalNAcα-O-Bn in the presence of 5′-CDP (▪) and 5′-CMP (□). b) Reverse sialylation by ST3Gal-II was measured in reaction mixtures containing 0.2 mM [9-^3H] [3], 7 mM 5′-CMP, ST3Gal-II (2 mU), D-Fucβ1,3GalNAcα-OBn (3.0 mM) and varying doses of either 5′-CDP (▴), 5′-UMP (◯) or 2-deoxy 5′-CMP (●) for 4 hours at 37° C. Reaction product ([9-^3H]NeuAcα2,3DFucβ1,3 GalNAcα-O-Bn) was isolated using Sep-Pak C18 method. In some runs, where was absent, the amount of CMP-NeuAc produced was quantified using the Dowex-1 Formate method in the presence of varying doses of 5′-CDP (▪).
(§2) Besides pH other distinctions were also observed between forward and reverse sialylation. In this regard, citrate ions tended to inhibit forward sialylation but not reverse sialylation activity (Table V). For these studies, the effect of citrate on the forward sialylation activity of ST3Gal-I, ST3Gal-II, ST3Gal-III and ST6Gal-I was examined. Reverse sialylation activity of ST3Gal-II was also measured in terms of: i) the formation of CMP-NeuAc from 5′-CMP; and ii) the transfer of NeuAc from this newly synthesized CMP-NeuAc to another O-glycan. From the data (Table V), it is evident that citrate inhibits the direct sialylation activity of all the enzymes mentioned above. However, both the synthesis of CMP-[9-^3H]NeuAc from 5′-CMP as well as the synthesis of [9-^3H]NeuAcα2,3D-Fucβ1,3 GalNAcα-O-Bn using the newly formed CMP-[9-^3H]NeuAc through reverse sialylation of ST3Gal-II was not inhibited by citrate.
(§3) The effect of 5′-nucleotides on forward sialylation (FIG. 5a) and reverse sialylation (FIG. 5b) were examined. […] The overall formation of [9-^3H]NeuAcα2,3D-Fucβ1,3 GalNAcα-O-Bn by the two-step reverse sialylation process, however, was inhibited by 5′-CDP and this is consistent with the finding that 5′-CDP inhibits forward sialylation in the second step.

[3] = molecular target: T5, ST3Gal II (Cloned rat liver) (Rattus norvegicus, UniProt Q11205); test: Forward (direct) sialyltransferase activity, ST3Gal-II
T5 construct: purchased Calbiochem
T5 sequence (Q11205 1-350): T3 sequence (Q11205 1-350)
Procedure: as §1, §2, §3

ST3Gal-II [4] = molecular target: T3, ST3Gal-II; test: Reverse sialylation by ST3Gal-II in presence of citrate or 5′-nucleotides; conditions: for inhibition at 40000 µM: 40 mM citrate, donor [3]
Procedure: as §1, §2, §3

[5] = molecular target: T6, ST6Gal I (Cloned rat liver) (Rattus norvegicus, UniProt P13721); test: Forward (direct) sialyltransferase activity, ST6Gal-I
T6 construct: purchased Calbiochem
T6 sequence (P13721 1-403): T1 sequence (P13721 1-403)
Procedure: as §1, §2, §3

ST3Gal I (Cloned Human) = molecular target: T7, ST3Gal I (Cloned Human) (Homo sapiens, UniProt Q11201); test: Forward (direct) sialyltransferase activity, ST3Gal I
T7 sequence (Q11201 1-340): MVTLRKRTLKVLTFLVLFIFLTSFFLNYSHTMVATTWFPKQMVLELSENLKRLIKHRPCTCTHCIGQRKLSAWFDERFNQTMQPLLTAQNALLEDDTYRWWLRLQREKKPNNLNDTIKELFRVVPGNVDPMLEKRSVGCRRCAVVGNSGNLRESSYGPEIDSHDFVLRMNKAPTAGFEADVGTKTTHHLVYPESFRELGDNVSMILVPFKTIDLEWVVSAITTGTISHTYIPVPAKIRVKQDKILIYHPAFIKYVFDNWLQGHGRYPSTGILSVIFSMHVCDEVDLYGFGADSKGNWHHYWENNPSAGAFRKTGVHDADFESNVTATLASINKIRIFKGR
Procedure: as §2

[6] = acceptor Galβ1,3GalNAcβ-O-Al 1.0 mM, 0.15 mM CMP-[9-3H]NeuAc, 4 hours

| Incorporation of [9-3H]NeuAc into the acceptor, ST6Gal-I activity (ST6Gal-I) [CPM] | Incorporation of [9-3H]NeuAc into the acceptor, ST3Gal-III activity (ST3Gal-III) [CPM] | Incorporation of [9-3H]NeuAc into the acceptor, ST3Gal-II activity (ST3Gal-II [1]) [CPM] | SMILES | inhibition at 40000 µM ([2]; 40 mM citrate, acceptor 4-O-MeGalβ1,4GlcNAcβ-O-Bn) [%] | Activity (Incorporation of [9-3H]NeuAc) with citrate (40 mM) ([2]; acceptor 4-O-MeGalβ1,4GlcNAcβ-O-Bn 1.0 mM, 0.15 mM CMP-[9-3H]NeuAc, 4 hours) [CPM] | inhibition at 40000 µM ([3]; 40 mM citrate, acceptor Galβ1,3GalNAcβ-O-Al) [%] | Activity (Incorporation of [9-3H]NeuAc) with citrate (40 mM) [3, 6] [CPM] | inhibition at 40000 µM (ST3Gal-II [4]; read-out: Inhibition of synthesis of CMP-[9-3H]NeuAc from 5′-CMP) [%] | inhibition at 40000 µM (ST3Gal-II [4]; read-out: Inhibition of synthesis of [9-3H]NeuAcα2,3D-Fucβ1,3GalNAcα-OBn through 5′-CMP) [%] | Activity (Incorporation of [9-3H]NeuAc) with citrate (40 mM): synthesis of [9-3H]NeuAcα2,3D-Fucβ1,3GalNAcα-OBn through 5′-CMP (ST3Gal-II [4]; donor […] [3], 20 mM 5′-CMP, 3.0 mM D-Fucβ1,3GalNAcα-OBn, 4 hours) [CPM] | Activity (Incorporation of [9-3H]NeuAc) with citrate (40 mM): synthesis of CMP-[9-3H]NeuAc from 5′-CMP (ST3Gal-II [4]; donor […] [3], 20 mM 5′-CMP, 5.0 mU ST3Gal-II, 4 hours) [CPM] | inhibition at 40000 µM ([5]; 40 mM citrate, acceptor Galβ1,4GlcNAcβ-O-Bn) [%] | Activity (Incorporation of [9-3H]NeuAc) with citrate (40 mM) ([5]; acceptor Galβ1,4GlcNAcβ-O-Bn 1.0 mM, 0.15 mM CMP-[9-3H]NeuAc, 4 hours) [CPM] | inhibition at 40000 µM (ST3Gal I (Cloned Human)) [%] | Activity (Incorporation of [9-3H]NeuAc) with citrate (40 mM) (ST3Gal I (Cloned Human); [6]) [CPM] |
| --- | --- | --- | --- | --- | --- | --- | --- | --- | --- | --- | --- | --- | --- | --- | --- |
| 182 | 3804 | 1243 | CC(=O)NC1C(O)CC(OP(=O)(O)OCC2OC(n3ccc(=O)[nH]c3=O)C(O)C2O)(C(=O)O)OC1C(O)C(O)CO (stereo not drawn) [UMP-NeuAc] | – | – | – | – | – | – | – | – | – | – | – | – |
| – | – | – | O=C(O)CC(O)(CC(=O)O)C(=O)O [citrate, sodium citrate] | 64.3 | 39115 | 48.2 | 33025 | 0 | 0 | 59131 | 48800 | 92.4 | 7471 | 98.3 | 402 |
